Measured values taken from patent publication US4835189A, “Phenolic thioalkylamides as inhibitors of 5-lipoxygenase” (G. D. Searle & Co., priority 1987, dated 1989).

Target: T1, 5-lipoxygenase (Rattus norvegicus, UniProt P12527)
T1 construct: The 100,000 x g supernatant fraction of Rat Basophilic Leukemia Cell Homogenate (RBL-1) serves as a 5-lipoxygenase enzyme source; endogenous in cells; host or cells: RBL-1 (rat basophilic leukemia) cells, 100,000 x g supernatant of homogenate
T1 sequence (P12527 1-673): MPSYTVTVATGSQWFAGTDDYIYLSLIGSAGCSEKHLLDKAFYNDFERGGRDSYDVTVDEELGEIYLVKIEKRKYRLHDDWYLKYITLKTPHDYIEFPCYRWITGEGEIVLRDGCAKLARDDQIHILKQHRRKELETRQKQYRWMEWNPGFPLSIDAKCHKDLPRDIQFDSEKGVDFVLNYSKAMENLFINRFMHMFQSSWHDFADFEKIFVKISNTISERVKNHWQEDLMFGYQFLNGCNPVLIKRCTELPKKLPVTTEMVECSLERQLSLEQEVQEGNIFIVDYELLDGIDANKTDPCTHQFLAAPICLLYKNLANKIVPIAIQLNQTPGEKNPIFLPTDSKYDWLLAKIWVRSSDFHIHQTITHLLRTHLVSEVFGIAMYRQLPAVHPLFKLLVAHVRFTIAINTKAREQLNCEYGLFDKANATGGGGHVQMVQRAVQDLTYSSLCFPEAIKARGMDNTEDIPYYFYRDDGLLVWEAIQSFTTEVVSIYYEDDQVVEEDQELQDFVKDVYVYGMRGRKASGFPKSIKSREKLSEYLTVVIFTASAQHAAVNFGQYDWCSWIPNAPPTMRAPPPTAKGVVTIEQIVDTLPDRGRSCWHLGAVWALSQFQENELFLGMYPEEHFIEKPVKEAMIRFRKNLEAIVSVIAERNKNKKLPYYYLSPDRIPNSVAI
Assay: Inhibition of 5-lipoxygenase, in vitro (5-HETE synthesis, RBL-1 homogenate 100,000 x g supernatant)
Assay type: biochemical
Conditions: RBL-1 100,000 x g supernatant, [1-14C]-arachidonic acid and Ca++
Procedure: The compounds of the invention are evaluated with respect to 5-lipoxygenaseinhibition according to the following assay procedure.
Inhibition of 5-lipoxygenase, in vitro: anti-inflammatory, anti-allergy activities.
The 100,000 x g supernatant fraction of Rat Basophilic Leukemia Cell Homogenate (RBL-1) serves as a 5-lipoxygenase enzyme source. The enzyme is incubated with [1-^14 C)-arachidonic acid and Ca++ in the presence and absence of test compound. The product of 5-lipoxygenase, 5-hydroxyeicosatetraenoic acid (5-HETE), is separated by thin-layer chromatography and measured by radioactivity. A compound inhibiting 5-HETE synthesis by 30% or more is considered active at that concentration.

IC50	Structure (SMILES)
560 nM	CC(C)N(Cc1ccccc1)C(=O)CCSc1cc(C(C)(C)C)c(O)c(C(C)(C)C)c1 [Example 4, 3-[[3,5-bis(1,1-dimethylethyl)-4-hydroxylphenyl]thio]-N-(1-methylethyl)-N-(phenylmethyl)propanamide]
1400 nM	CC(C)N(C(=O)CCSc1cc(C(C)(C)C)c(O)c(C(C)(C)C)c1)C(C)C [Example 5, 3-[[3,5-bis(1,1-dimethylethyl)-4-hydroxyphenyl]thio]-N,N-bis(1-methylethyl)propanamide]
